Paper PMC4918903 (Journal of natural products, 2008)
≈ marks a conversion by molar mass, not a printed value. Entries after “also recorded” stand apart in the source; their conditions may differ.

Legend:
[1] = test system: Mycobacterium intracellulare; assay: In vitro antibacterial activity; format: cell-based
[2] = test system: P. bergei-infected mice; conditions: single intraperitoneal and oral administration; cited from earlier work
[3] = test system: P. falciparum (D6 clone); assay: In vitro antimalarial activity, chloroquine-sensitive D6 clone; format: cell-based; conditions: Plasmodium falciparum, D6, read-out: P. falciparum (D6 clone) IC50
[4] = test system: P. berghei (sensitive strain); assay: In vivo antimalarial activity in rodent malaria model; conditions: oral; for cure: mice without parasitemia up to day 28 post-infection; for toxicity in vivo (in words): 30 mg/kg/day x 3 doses
[5] = test system: Leishmania donovani promastigotes; assay: Antileishmanial activity, Almar Blue assay; format: cell-based; conditions: for IC50: read-out: L. donovani IC50
[6] = test system: Cryptococcus neoformans; assay: In vitro antifungal activity; format: cell-based; conditions: for IC50: Cryptococcus neoformans, read-out: C. neoformans IC50
[7] = test system: Candida albicans; assay: In vitro antifungal activity; format: cell-based
[8] = test system: P. falciparum (W2 clone); assay: In vitro antimalarial activity, chloroquine-resistant W2 clone; format: cell-based; conditions: Plasmodium falciparum, W2, read-out: P. falciparum (W2 clone) IC50
[9] = Stability in solvents; format: physicochemical
[10] = test system: Vero cell line (monkey kidney fibroblast cells); assay: Cytotoxicity to mammalian Vero cells; format: cell-based; conditions: highest tested concentration 4700 ng/mL
[11] = test system: methicillin-resistant S. aureus (MRSA); assay: In vitro antibacterial activity; format: cell-based
[12] = test system: HSV-II; conditions: cited from earlier work
[13] = test system: KB carcinoma cell line; conditions: replacement of hydroxyl with methoxy at 8-position; cited from earlier work
[14] = test system: LoVo; conditions: versus 8-hydroxy parent; cited from earlier work

In the case of `O[C@]12C=C(c3nccc4c3[nH]c3ccccc34)[C@@H]3CCN(CCCC/C=C\CC1)C[C@@]31C[C@@H]3/C=C\CCCCN3[C@H]12` [Compound 1, manzamine A], the IC50 ([1]; Mycobacterium intracellulare, read-out: M. intracellulare IC50) is given as 0.35 µg/mL (≈ 0.638 µM), the “prolonged survival of infected mice” value [2] is given as “more than 10 days” and the IC50 [3] is given as 4.2 ng/mL (≈ 0.00765 µM). For the same molecule, the cure ([4]; 10 mg/kg x 3 days) was 1/4, the “toxicity in vivo (in words)” value [4] was “shows toxicity” and the IC50 [5] was 0.9 µg/mL (≈ 1.64 µM). It also gave an IC50 [6] of 3 µg/mL (≈ 5.47 µM) and an IC50 ([7]; Candida albicans, read-out: C. albicans IC50) of 2 µg/mL (≈ 3.64 µM).

For `Oc1cccc2c1[nH]c1c(C3=C[C@@]4(O)CC/C=C\CCCCN5CC[C@@H]3[C@]3(C[C@@H]6/C=C\CCCCN6[C@H]34)C5)nccc12` [Compound 2, 8-hydroxymanzamine A], the IC50 [8] is listed as 0.008 µg/mL (≈ 0.0142 µM), the “prolonged survival of infected mice” value [2] is listed as “more than 10 days” and the IC50 [3] is listed as 6 ng/mL (≈ 0.0106 µM). For the same molecule, the cure ([4]; 10 mg/kg x 3 days) was 0/4, the cure ([4]; 30 mg/kg x 3 days) was 0/4 and the IC50 [5] was 6.2 µg/mL (≈ 11 µM). It also gave an IC50 [6] of 3 µg/mL (≈ 5.31 µM) and an MIC ([7]; Candida albicans, read-out: C. albicans MIC) of 20 µg/mL (≈ 35.4 µM).

In the case of `Oc1cccc2c1[nH]c1c(C3=C[C@@]4(O)CC/C=C\CCCCN5CC[C@@H]3[C@]3(CC6/C=C\CCCCN6[C@H]34)C5)nccc12` (stereo partly drawn) [Compound 2, 8-hydroxymanzamine A], the “toxicity in vivo (in words)” value [4] is reported as “not toxic”.

For `CC(=O)Oc1cccc2c1[nH]c1c(C3=C[C@@]4(O)CC/C=C\CCCCN5CC[C@@H]3[C@]3(C[C@@H]6/C=C\CCCCN6[C@H]34)C5)nccc12` [Compound 3, 8-acetoxymanzamine A], the cure ([4]; 10 mg/kg x 3 days) was 0/4, the cure ([4]; 30 mg/kg x 3 days) was 0/3 and the “toxicity in vivo (in words)” value [4] was “higher toxicity; also recorded: toxic”. The “hydrolysis in DMSO and IPA (in words)” value ([9]; DMSO and IPA) was “negligible”, the “formation of hydroxyl moiety 2 in MeCN and DMSO (in words)” value ([9]; MeCN and DMSO) was “no detectable trace” and the “hydrolysis to 2 in MeOH” value ([9]; MeOH, 15 h, LC-MS) was 98%. The “toxicity to Vero cell line (in words)” value [10] was “exhibited toxicity”.

For `CC(=O)Oc1cccc2c1[nH]c1c(C3=C[C@@]4(OC(C)=O)CC/C=C\CCCCN5CC[C@@H]3[C@]3(C[C@@H]6/C=C\CCCCN6[C@H]34)C5)nccc12` [Compound 4, 8,12-diacetoxymanzamine A], the “activity against M. intracellulare (in words)” value [1] was “moderate activity”, the “stability in CDCl3 and CD2Cl2 (in words)” value ([9]; CDCl3 and CD2Cl2, 24 h, 1H NMR) was “decomposition” and the “stability in benzene (in words)” value ([9]; benzene, a few days of 1H NMR acquisition) was “no changes were observed”. The “stability in several tested solvents (in words)” value ([9]; several tested solvents with the exception of benzene) was “unstable and easily degraded”, the “toxicity to Vero cell line (in words)” value [10] was “did not show cytotoxicity” and the “activity against C. neoformans (in words)” value [6] was “inactive”. The “activity against C. albicans (in words)” value [7] was “inactive” and the “activity against MRSA (in words)” value [11] was “moderate activity”.

For `COc1cccc2c1[nH]c1c(C3=C[C@@]4(O)CC/C=C\CCCCN5CC[C@@H]3[C@]3(C[C@@H]6/C=C\CCCCN6[C@H]34)C5)nccc12` [Compound 5, 8-methoxymanzamine A], the “activity against HSV-II (in words)” value [12] is given as “no activity”, the “toxicity in KB carcinoma cell line versus 8-hydroxy parent (in words)” value [13] is given as “reduced the toxicity” and the “stability in different solvents (in words)” value ([9]; different solvents, two months, LC-MS) is given as “no expected hydrolysis to compound 2 was observed”. The “toxicity to Vero cell line (in words)” value [10] was “exhibited toxicity” and the “cytotoxicity against LoVo (in words)” value [14] was “cytotoxity increased”.

With `CCN(CC)CCCC(C)Nc1ccnc2cc(Cl)ccc12` (stereo not drawn) [chloroquine, reference compound] the IC50 [8] was 0.155 µg/mL (≈ 0.485 µM), the IC50 [3] was 14 ng/mL (≈ 0.0438 µM) and the “% suppression in parasitemia (% activity) day 7” value ([4]; 50 mg/kg x 3 days, vehicle 0.1 N HCl, day 7 post-infection) was 100%. The “% suppression in parasitemia (% activity) day 10” value ([4]; 50 mg/kg x 3 days, vehicle 0.1 N HCl, day 10 post-infection) was 100%, the “% suppression in parasitemia (% activity) day 14” value ([4]; 50 mg/kg x 3 days, vehicle 0.1 N HCl, day 14 post-infection) was 100% and the cure ([4]; 50 mg/kg x 3 days) was 3/4.

With `N=C(N)c1ccc(OCCCCCOc2ccc(C(=N)N)cc2)cc1` [pentamidine, reference compound] the IC50 [5] was 2.6 µg/mL (≈ 7.64 µM) and the IC90 ([5]; read-out: L. donovani IC90) was 6.9 µg/mL (≈ 20.3 µM).
